From PubChem BioAssay (NCI) come the findings set out here.

SMILES strings stand for the structures.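 Compound exposure: 48 hours, 5 concentrations, 96-well plates. Abbreviation: GI50, concentration required for 50% inhibition of growth. TGI: concentration producing complete growth inhibition.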

Among the test systems are MOLT-4 leukemia; IGROV1 ovarian; CCRF-CEM leukemia; M19-MEL melanoma; SNB-19 CNS; DMS 273 small cell lung; NCI/ADR-RES ovarian; BT-549 breast; MDA-MB-435.
Common to all, as to experiment: NCI-60 cell line screen, 48 h

With `COC(=O)/C(=N/Nc1cccc(Cl)c1)C(C(=O)C(=O)Nc1cccc(Cl)c1C)c1nc2ccccc2nc1C` (stereo not drawn), the TGI in the test on MOLT-4 leukemia, in the test on IGROV1 ovarian, with CCRF-CEM leukemia and with M19-MEL melanoma was above 100 µM each time.
On to `O=c1cc(-c2c[nH]c3ccccc23)[nH]c2cc3c(cc12)OCO3`, for which the TGI in the test with MOLT-4 leukemia, in the test with IGROV1 ovarian, with CCRF-CEM leukemia, in the test on SNB-19 CNS, in the test with M19-MEL melanoma and in the test on DMS 273 small cell lung was above 100 µM throughout.
For the compound `CN(C)C(=Nc1nc(=[N+](C)C)ss1)N(C)C`, the TGI in the test on MOLT-4 leukemia, in the test with IGROV1 ovarian, with CCRF-CEM leukemia, with SNB-19 CNS, with M19-MEL melanoma and with DMS 273 small cell lung was above 100 µM each time.
As for `CCCCC(C)C(OC(=O)CC(CC(=O)O)C(=O)O)C(CC(C)CC(O)CCCCC(O)CC(O)C(C)N)OC(=O)CC(CC(=O)O)C(=O)O` (stereo not drawn), the TGI in the test on MOLT-4 leukemia, in the test with IGROV1 ovarian, in the test on CCRF-CEM leukemia, in the test with SNB-19 CNS and with M19-MEL melanoma was above 100 µM in each case.
As to `CCOc1cc(Br)c(C(C)NC(=O)c2cccc(OC)c2)cc1OCC` (stereo not drawn), the GI50 in the test with NCI/ADR-RES ovarian was 5.71 µM; in the test on BT-549 breast, 13.2 µM; with MOLT-4 leukemia, 5.64 µM; with IGROV1 ovarian, 22.3 µM; in the test with CCRF-CEM leukemia, 13.6 µM; in the test on SNB-19 CNS, 11.8 µM. In the test with MDA-MB-435, the GI50 is 2.16 µM. For the same compound, the TGI in the test on NCI/ADR-RES ovarian was above 100 µM; in the test on BT-549 breast it was above 84.1 µM; in the test on MOLT-4 leukemia, above 100 µM; in the test with IGROV1 ovarian, above 100 µM; with CCRF-CEM leukemia it was above 100 µM; with SNB-19 CNS, above 100 µM. In the test with MDA-MB-435, this compound gave a TGI of 6.1 µM.
For the compound `O=C(O)c1cn(C2CC2)c2cc(N3CCN(C(=O)Nc4nc(-c5ccccc5)cs4)CC3)c(F)cc2c1=O`, the GI50 is 4.82 µM with NCI/ADR-RES ovarian; 0.473 µM in the test with BT-549 breast; 1.61 µM in the test on MOLT-4 leukemia; 1.2 µM in the test with IGROV1 ovarian; 0.752 µM with CCRF-CEM leukemia; 1.12 µM in the test on SNB-19 CNS. Further, in the test with MDA-MB-435, the GI50 was 1.16 µM. Moreover, the TGI in the test with NCI/ADR-RES ovarian is above 100 µM; in the test with BT-549 breast it was 10.4 µM; in the test on MOLT-4 leukemia, 11.5 µM; in the test on IGROV1 ovarian, above 100 µM; in the test on CCRF-CEM leukemia, above 100 µM; in the test with SNB-19 CNS, above 100 µM. For the same compound, the TGI in the test with MDA-MB-435 is above 100 µM.
`COc1ccc(/C=c2\sc3n(c2=O)C2C(NN=3)N(C)C(=O)N2C)cc1` (stereo not drawn): the GI50 was 0.579 µM in the test with NCI/ADR-RES ovarian; 0.589 µM in the test on BT-549 breast; 1.24 µM with MOLT-4 leukemia; 1.32 µM with IGROV1 ovarian; 0.426 µM in the test with CCRF-CEM leukemia; 1.3 µM in the test with SNB-19 CNS. The GI50 in the test on MDA-MB-435 is 0.2 µM. In addition, the TGI with NCI/ADR-RES ovarian is above 40.9 µM; with BT-549 breast, above 100 µM; in the test with MOLT-4 leukemia it was above 100 µM; in the test with IGROV1 ovarian it was above 100 µM; in the test with CCRF-CEM leukemia, above 100 µM; with SNB-19 CNS, above 100 µM. Besides, in the test on MDA-MB-435, the TGI was 0.759 µM.
With `Cc1ccc(C(NC(=O)c2ccccc2)c2ccc3cccnc3c2O)cc1` (stereo not drawn), the GI50 in the test on NCI/ADR-RES ovarian is 0.189 µM; in the test on BT-549 breast, 0.524 µM; in the test on MOLT-4 leukemia, 0.332 µM; in the test on IGROV1 ovarian, 0.352 µM; in the test with CCRF-CEM leukemia it was 0.0783 µM; in the test on SNB-19 CNS it was 0.492 µM. Moreover, the GI50 in the test on MDA-MB-435 was 0.491 µM. The TGI with BT-549 breast was above 40.6 µM; with MOLT-4 leukemia, above 70.2 µM; in the test on IGROV1 ovarian, 4.95 µM; in the test on SNB-19 CNS, above 100 µM; in the test on MDA-MB-435, 23.4 µM.
Consider `O=[N+]([O-])c1ccc(Oc2nc(Nc3ccc(O[C@H]4CO[C@H]5[C@@H]4OC[C@@H]5O)c(Cl)c3)ncc2F)c(Cl)c1`, for which the GI50 in the test on NCI/ADR-RES ovarian was 9.04 µM; in the test with BT-549 breast, 1.29 µM; with MOLT-4 leukemia, 1.27 µM; in the test on IGROV1 ovarian, 0.493 µM; with CCRF-CEM leukemia it was 0.718 µM; in the test with SNB-19 CNS it was 2.89 µM. In the test with MDA-MB-435, the GI50 is 1.2 µM. In addition, the TGI was above 100 µM in the test with NCI/ADR-RES ovarian; 3.36 µM in the test on BT-549 breast; 4.82 µM with MOLT-4 leukemia; 2.77 µM in the test with IGROV1 ovarian; 7.2 µM with CCRF-CEM leukemia; 9.81 µM in the test on SNB-19 CNS. Besides, in the test on MDA-MB-435, the TGI was determined as 3.5 µM.
In the case of `CCN1C(=O)CCCc2c1ccc(Nc1ncc(Cl)c(NC3[C@@H](C(N)=O)[C@@H]4C=C[C@H]3C4)n1)c2OC` (stereo partly drawn), the GI50 in the test on NCI/ADR-RES ovarian was 2.35 µM; in the test on BT-549 breast it was 3.61 µM; with MOLT-4 leukemia, 1.41 µM; in the test with IGROV1 ovarian, 1.46 µM; in the test with CCRF-CEM leukemia, 0.607 µM; in the test with SNB-19 CNS it was 1.94 µM. Moreover, the GI50 in the test on MDA-MB-435 is 0.917 µM. The TGI in the test on NCI/ADR-RES ovarian is above 100 µM; in the test with BT-549 breast, 17.4 µM; with MOLT-4 leukemia, 11.3 µM; in the test on IGROV1 ovarian, 3.96 µM; with CCRF-CEM leukemia, 17.9 µM; with SNB-19 CNS, 14 µM. The compound also had a TGI with MDA-MB-435 of 9.85 µM.
As for `COc1cc(OC)c2nccc(NCCCN(C)C)c2c1[N+](=O)[O-]`, the TGI in the test on NCI/ADR-RES ovarian, in the test on BT-549 breast, in the test with MOLT-4 leukemia, in the test on IGROV1 ovarian, in the test on CCRF-CEM leukemia and in the test with SNB-19 CNS was above 100 µM each time. Further, in the test with MDA-MB-435, the TGI is above 100 µM.
For the compound `Cc1cc2cc3ccc(N(C)C)cc3nc2cc1N`, the GI50 with NCI/ADR-RES ovarian is 2.51 µM; in the test on BT-549 breast, 1.64 µM; with MOLT-4 leukemia, 0.438 µM; in the test on IGROV1 ovarian it was 0.528 µM; with CCRF-CEM leukemia it was 0.772 µM; in the test on SNB-19 CNS, 0.582 µM. Moreover, the GI50 in the test with MDA-MB-435 was 0.703 µM. The TGI with NCI/ADR-RES ovarian came to 23.4 µM; in the test with BT-549 breast it was 3.82 µM; in the test with MOLT-4 leukemia, 9.31 µM; in the test on IGROV1 ovarian, 2.9 µM; with CCRF-CEM leukemia, 10.7 µM; with SNB-19 CNS it was 4.42 µM. Further, the TGI in the test with MDA-MB-435 came to 2.28 µM.
For the compound `Cn1nc(-c2ccc(Cl)cc2)nc2c(=O)n(C)c(=O)nc1-2`, the GI50 is 1.33 µM in the test with NCI/ADR-RES ovarian; 0.968 µM with BT-549 breast; 1.13 µM in the test on MOLT-4 leukemia; 0.842 µM with IGROV1 ovarian; 1.49 µM in the test with CCRF-CEM leukemia; 3.03 µM in the test with SNB-19 CNS. Also, the GI50 in the test with MDA-MB-435 is 0.137 µM. For the same compound, the TGI came out at 4.47 µM with NCI/ADR-RES ovarian; 1.94 µM in the test with BT-549 breast; 3.22 µM with MOLT-4 leukemia; 3.67 µM in the test on IGROV1 ovarian; 50 µM in the test on CCRF-CEM leukemia; 6.73 µM with SNB-19 CNS. Besides, in the test on MDA-MB-435, the TGI came to 0.405 µM.
